Target: METTL3/METTL14 (Homo sapiens, UniProt Q86U44)
Experiment: METTL3-14 standard enzyme assay (3H-SAM flashplate)
Conditions: METTL3 biochemical assay
Protocol: METTL3-14 Standard Enzyme Assay
Assays were performed in a 25 μl-volume in 384-well V-bottom polypropylene microplates (Greiner Bio-One, cat. No. 781280) at ambient temperature. Optimized 1× assay buffer was 20 mM HEPES pH 7.5, 50 mM KCl, 250 μM MgCl2, 1 mM DTT, 0.01% Tween, 0.01% BSG, 0.004 U/μl RNAseOUT (cat. No. 10777019, ThermoFisher Scientific, Waltham, MA). For compound screening METTL3/METTL14 (final concentration, f.c.=2.5 nM) was added using a Multidrop Combi (ThermoFisher Scientific, Waltham, MA) and preincubated for 5 min. Reactions were started by adding 3′ biotinylated RNA (UCUGGACUAAA-biotin) (f.c.=100 nM) and 3H-SAM (f.c.=100 nM) substrates. Reactions proceeded for 30 minutes and were quenched with excess non-radioactive SAM (f.c.=15 μM). The reactions were then transferred to streptavidin-coated flashplates and incubated for 2 hours at 25° C. Following two washing cycles with 0.1% Tween-20, the plates were sealed and read on a TopCount (PerkinElmer, Waltham, MA) plate-based scintillation counter. For determination of kinetic parameters, reaction times were optimized so that measurements were taken during the initial velocity phase of the reaction.

Sequence of METTL3/METTL14 (Q86U44 whole entry, species assumed): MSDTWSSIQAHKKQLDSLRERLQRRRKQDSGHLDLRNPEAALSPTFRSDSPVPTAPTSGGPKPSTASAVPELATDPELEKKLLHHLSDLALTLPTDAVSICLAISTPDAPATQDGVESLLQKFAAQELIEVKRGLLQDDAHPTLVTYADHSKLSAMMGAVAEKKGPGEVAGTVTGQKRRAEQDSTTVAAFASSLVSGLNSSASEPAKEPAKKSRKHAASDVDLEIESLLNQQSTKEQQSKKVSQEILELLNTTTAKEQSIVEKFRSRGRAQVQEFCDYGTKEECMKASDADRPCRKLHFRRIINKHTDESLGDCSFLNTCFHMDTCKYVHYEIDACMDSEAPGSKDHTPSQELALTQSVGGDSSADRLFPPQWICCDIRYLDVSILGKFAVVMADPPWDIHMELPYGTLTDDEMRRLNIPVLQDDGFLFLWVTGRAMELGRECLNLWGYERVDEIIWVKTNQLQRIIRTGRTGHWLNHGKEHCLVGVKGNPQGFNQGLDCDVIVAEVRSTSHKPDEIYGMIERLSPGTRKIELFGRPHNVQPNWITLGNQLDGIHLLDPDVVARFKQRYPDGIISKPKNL
Sequence of METTL3/METTL14 (Q9HCE5 whole entry partner, species assumed): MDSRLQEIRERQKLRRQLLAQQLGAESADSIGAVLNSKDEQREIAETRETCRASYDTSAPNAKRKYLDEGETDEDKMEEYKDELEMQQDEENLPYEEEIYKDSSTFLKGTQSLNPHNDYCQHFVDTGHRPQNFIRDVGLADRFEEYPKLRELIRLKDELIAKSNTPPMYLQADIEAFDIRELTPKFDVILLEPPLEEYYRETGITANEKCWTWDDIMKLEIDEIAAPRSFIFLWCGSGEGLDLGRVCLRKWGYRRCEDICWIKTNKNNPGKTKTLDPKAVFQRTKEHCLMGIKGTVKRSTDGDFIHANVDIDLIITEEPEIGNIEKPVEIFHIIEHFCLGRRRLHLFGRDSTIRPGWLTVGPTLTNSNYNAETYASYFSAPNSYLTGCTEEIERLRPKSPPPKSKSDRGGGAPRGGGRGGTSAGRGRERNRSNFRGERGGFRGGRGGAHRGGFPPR

SMILES | IC50 (Table 3) [nM] | IC50 (Table 4) [nM]
Nc1ncnc2c1c(-n1cccn1)cn2[C@@H]1C[C@H](C(=O)Nc2ccc3ccc(N4CCC4)nc3c2)[C@@H](O)C1 [Compound I-14] | 10 to 100 | 
Nc1ncnc2c1c(-n1cccn1)cn2[C@H]1C[C@H](O)[C@@H](C(=O)Nc2ccc3ccc(NC4CCC4)nc3c2)O1 [Compound I-16] | < 10 | 
Nc1ncnc2c1c(-n1cccn1)cn2[C@H]1C[C@H](O)[C@@H](C(=O)Nc2cc(NC3CCC3)ccn2)O1 [Compound I-17, (2S,3S,5R)-5-[4-amino-5-(1H-pyrazol-1-yl)-7H-pyrrolo[2,3-d]pyrimidin-7-yl]-N-[4-(cyclobutylamino)pyridin-2-yl]-3-hydroxyoxolane-2-carboxamide] | ≥ 1000 | 
Cn1ccc(-c2cn([C@@H]3O[C@H](C(=O)NCCN4CCNC4=O)[C@@H](O)[C@H]3O)c3ncnc(N)c23)n1 [Compound I-64] |  | ≥ 1000
Cn1ccc(-c2cn([C@@H]3O[C@H](C(=O)NCCN4CCOCC4)[C@@H](O)[C@H]3O)c3ncnc(N)c23)n1 [Compound I-65] |  | ≥ 1000
CC(C)OCCNC(=O)[C@H]1O[C@@H](n2cc(-c3ccn(C)n3)c3c(N)ncnc32)[C@H](O)[C@@H]1O [Compound I-73] |  | ≥ 1000
Cn1ccc(-c2cn([C@@H]3O[C@H](C(=O)Nc4cccc(N5CCOCC5)c4)[C@@H](O)[C@H]3O)c3ncnc(N)c23)n1 [Compound I-74] |  | ≥ 1000
Cn1ccc(-c2cn([C@@H]3O[C@H](C(=O)Nc4ccc(-c5ccccc5)cn4)[C@@H](O)[C@H]3O)c3ncnc(N)c23)n1 [Compound I-79] |  | ≥ 1000
COCC(C)NC(=O)[C@H]1O[C@@H](n2cc(-c3ccn(C)n3)c3c(N)ncnc32)[C@H](O)[C@@H]1O (stereo partly drawn) [Compound I-80] |  | ≥ 1000
Cn1ccc(-c2cn([C@@H]3O[C@H](C(=O)NCc4ccc(OC(F)(F)F)cc4)[C@@H](O)[C@H]3O)c3ncnc(N)c23)n1 [Compound I-84] |  | ≥ 1000
Cn1ccc(-c2cn([C@@H]3O[C@H](C(=O)N[C@H](CO)c4ccccc4)[C@@H](O)[C@H]3O)c3ncnc(N)c23)n1 [Compound I-87] |  | ≥ 1000
Cn1ccc(-c2cn([C@@H]3O[C@H](C(=O)N[C@@H](CO)c4ccccc4)[C@@H](O)[C@H]3O)c3ncnc(N)c23)n1 [Compound I-88] |  | ≥ 1000
Cn1ccc(-c2cn([C@@H]3O[C@H](C(=O)NCC4CCOC4)[C@@H](O)[C@H]3O)c3ncnc(N)c23)n1 (stereo partly drawn) [Compound I-89] |  | ≥ 1000
Cn1ccc(-c2cn([C@@H]3O[C@H](C(=O)NC4CCN(S(C)(=O)=O)CC4)[C@@H](O)[C@H]3O)c3ncnc(N)c23)n1 [Compound I-95] |  | 100 to 1000
Cn1ccc(-c2cn([C@@H]3O[C@H](C(=O)NCCC4CCOCC4)[C@@H](O)[C@H]3O)c3ncnc(N)c23)n1 [Compound I-96] |  | 100 to 1000
Cn1ccc(-c2cn([C@@H]3O[C@H](C(=O)Nc4ccc(-c5ccccc5)cc4)[C@@H](O)[C@H]3O)c3ncnc(N)c23)n1 [Compound I-98] |  | 100 to 1000
Cn1ccc(-c2cn([C@@H]3O[C@H](C(=O)N4CCc5ccccc54)[C@@H](O)[C@H]3O)c3ncnc(N)c23)n1 [Compound I-99] |  | 100 to 1000
Cn1ccc(-c2cn([C@@H]3O[C@H](C(=O)Nc4ccc(Oc5ccccc5)cc4)[C@@H](O)[C@H]3O)c3ncnc(N)c23)n1 [Compound I-100] |  | 100 to 1000
Cn1ccc(-c2cn([C@@H]3O[C@H](C(=O)NCCCn4ccnc4)[C@@H](O)[C@H]3O)c3ncnc(N)c23)n1 [Compound I-102] |  | 100 to 1000
Cn1ccc(-c2cn([C@@H]3O[C@H](C(=O)NC4CCC(O)CC4)[C@@H](O)[C@H]3O)c3ncnc(N)c23)n1 (stereo partly drawn) [Compound I-103] |  | 100 to 1000
Cn1ccc(-c2cn([C@@H]3O[C@H](C(=O)Nc4ccc(S(=O)(=O)N5CCOCC5)cc4)[C@@H](O)[C@H]3O)c3ncnc(N)c23)n1 [Compound I-107] |  | 100 to 1000
Cn1ccc(-c2cn([C@@H]3O[C@H](C(=O)NCCc4ccc(C(F)(F)F)cc4)[C@@H](O)[C@H]3O)c3ncnc(N)c23)n1 [Compound I-108] |  | 100 to 1000

Results, then the compound that gave them:

IC50 (Table 3) [nM] | IC50 (Table 4) [nM] | SMILES
 | ≥ 1000 | Cn1ccc(-c2cn([C@@H]3O[C@H](C(=O)Nc4ccc(Br)c(Cl)c4)[C@@H](O)[C@H]3O)c3ncnc(N)c23)n1 [Compound I-63]
 | ≥ 1000 | Cn1ccc(-c2cn([C@@H]3O[C@H](C(=O)Nc4ccc5ccccc5n4)[C@@H](O)[C@H]3O)c3ncnc(N)c23)n1 [Compound I-66]
 | ≥ 1000 | Cn1ccc(-c2cn([C@@H]3O[C@H](C(=O)Nc4cc(Cl)cc(Cl)c4)[C@@H](O)[C@H]3O)c3ncnc(N)c23)n1 [Compound I-67]
 | ≥ 1000 | Cc1ccc2nc(NC(=O)[C@H]3O[C@@H](n4cc(-c5ccn(C)n5)c5c(N)ncnc54)[C@H](O)[C@@H]3O)sc2c1 [Compound I-68]
 | ≥ 1000 | Cn1ccc(-c2cn([C@@H]3O[C@H](C(=O)Nc4cccc5cnccc45)[C@@H](O)[C@H]3O)c3ncnc(N)c23)n1 [Compound I-69]
 | ≥ 1000 | CC(C)c1nnc(NC(=O)[C@H]2O[C@@H](n3cc(-c4ccn(C)n4)c4c(N)ncnc43)[C@H](O)[C@@H]2O)s1 [Compound I-70]
 | ≥ 1000 | Cc1ccc(NC(=O)[C@H]2O[C@@H](n3cc(-c4ccn(C)n4)c4c(N)ncnc43)[C@H](O)[C@@H]2O)cc1Cl [Compound I-71]
 | ≥ 1000 | Cc1ccc(Cl)c(NC(=O)[C@H]2O[C@@H](n3cc(-c4ccn(C)n4)c4c(N)ncnc43)[C@H](O)[C@@H]2O)c1 [Compound I-72]
 | ≥ 1000 | Cc1noc(NC(=O)[C@H]2O[C@@H](n3cc(-c4ccn(C)n4)c4c(N)ncnc43)[C@H](O)[C@@H]2O)c1C [Compound I-75]
 | ≥ 1000 | Cn1ccc(-c2cn([C@@H]3O[C@H](C(=O)Nc4cccc(C(F)(F)F)c4)[C@@H](O)[C@H]3O)c3ncnc(N)c23)n1 [Compound I-76]
 | ≥ 1000 | Cc1cc(CNC(=O)[C@H]2O[C@@H](n3cc(-c4ccn(C)n4)c4c(N)ncnc43)[C@H](O)[C@@H]2O)ccc1F [Compound I-77]
 | ≥ 1000 | Cn1ccc(-c2cn([C@@H]3O[C@H](C(=O)Nc4nccc5ccccc45)[C@@H](O)[C@H]3O)c3ncnc(N)c23)n1 [Compound I-78]
 | ≥ 1000 | CC(O)CNC(=O)[C@H]1O[C@@H](n2cc(-c3ccn(C)n3)c3c(N)ncnc32)[C@H](O)[C@@H]1O (stereo partly drawn) [Compound I-81]
 | ≥ 1000 | Cn1ccc(-c2cn([C@@H]3O[C@H](C(=O)Nc4nccs4)[C@@H](O)[C@H]3O)c3ncnc(N)c23)n1 [Compound I-82]
 | ≥ 1000 | Cc1nsc(NC(=O)[C@H]2O[C@@H](n3cc(-c4ccn(C)n4)c4c(N)ncnc43)[C@H](O)[C@@H]2O)n1 [Compound I-83]
 | ≥ 1000 | CCc1cccc(NC(=O)[C@H]2O[C@@H](n3cc(-c4ccn(C)n4)c4c(N)ncnc43)[C@H](O)[C@@H]2O)n1 [Compound I-85]

IC50 (Table 3) [nM] | IC50 (Table 4) [nM] | SMILES
 | ≥ 1000 | Cc1cc(NC(=O)[C@H]2O[C@@H](n3cc(-c4ccn(C)n4)c4c(N)ncnc43)[C@H](O)[C@@H]2O)n(C)n1 [Compound I-86]
 | ≥ 1000 | CN(C)S(=O)(=O)c1cccc(NC(=O)[C@H]2O[C@@H](n3cc(-c4ccn(C)n4)c4c(N)ncnc43)[C@H](O)[C@@H]2O)c1 [Compound I-90]
 | ≥ 1000 | Cn1ccc(-c2cn([C@@H]3O[C@H](C(=O)Nc4cnccn4)[C@@H](O)[C@H]3O)c3ncnc(N)c23)n1 [Compound I-91]
 | ≥ 1000 | Cc1ccc(C(N)=O)cc1NC(=O)[C@H]1O[C@@H](n2cc(-c3ccn(C)n3)c3c(N)ncnc32)[C@H](O)[C@@H]1O [Compound I-92]
 | ≥ 1000 | Cc1cccnc1NC(=O)[C@H]1O[C@@H](n2cc(-c3ccn(C)n3)c3c(N)ncnc32)[C@H](O)[C@@H]1O [Compound I-93]
 | 100 to 1000 | Cn1ccc(-c2cn([C@@H]3O[C@H](C(=O)Nc4ccc5nsnc5c4)[C@@H](O)[C@H]3O)c3ncnc(N)c23)n1 [Compound I-94]
 | 100 to 1000 | COc1ccccc1CNC(=O)[C@H]1O[C@@H](n2cc(-c3ccn(C)n3)c3c(N)ncnc32)[C@H](O)[C@@H]1O [Compound I-97]
 | 100 to 1000 | CC(CNC(=O)[C@H]1O[C@@H](n2cc(-c3ccn(C)n3)c3c(N)ncnc32)[C@H](O)[C@@H]1O)c1ccccc1 (stereo partly drawn) [Compound I-101]
 | 100 to 1000 | Cn1cc(NC(=O)[C@H]2O[C@@H](n3cc(-c4ccn(C)n4)c4c(N)ncnc43)[C@H](O)[C@@H]2O)cn1 [Compound I-104]
 | 100 to 1000 | Cn1ccc(-c2cn([C@@H]3O[C@H](C(=O)Nc4cccc(C#N)c4)[C@@H](O)[C@H]3O)c3ncnc(N)c23)n1 [Compound I-105]
 | 100 to 1000 | Cc1cc(CNC(=O)[C@H]2O[C@@H](n3cc(-c4ccn(C)n4)c4c(N)ncnc43)[C@H](O)[C@@H]2O)no1 [Compound I-106]
 | 100 to 1000 | Cn1ccc(-c2cn([C@@H]3O[C@H](C(=O)Nc4ccnn4C)[C@@H](O)[C@H]3O)c3ncnc(N)c23)n1 [Compound I-109]
 | 100 to 1000 | CCCCc1ccc(NC(=O)[C@H]2O[C@@H](n3cc(-c4ccn(C)n4)c4c(N)ncnc43)[C@H](O)[C@@H]2O)cc1 [Compound I-110]
 | 100 to 1000 | Cn1ccc(-c2cn([C@@H]3O[C@H](C(=O)NCCc4ccc(Cl)cc4)[C@@H](O)[C@H]3O)c3ncnc(N)c23)n1 [Compound I-111]
 | 100 to 1000 | Cn1ccc(-c2cn([C@@H]3O[C@H](C(=O)NCCc4ccncc4)[C@@H](O)[C@H]3O)c3ncnc(N)c23)n1 [Compound I-112]
 | 100 to 1000 | Cc1cc(C#N)ccc1NC(=O)[C@H]1O[C@@H](n2cc(-c3ccn(C)n3)c3c(N)ncnc32)[C@H](O)[C@@H]1O [Compound I-113]
